Earlier results, collected in US7829124B2, “Use of Phyllanthus constituents for treating or preventing infections caused by hepatitis B-viruses” (priority 2001, dated 2010).

Assays:
[1] = target: T1, cAMP-dependent protein kinase of the rat liver (Rattus norvegicus, UniProt P27791)
T1 construct: the cAMP-dependent protein kinase of the rat liver; host or cells: rat liver

[2] = tested on: CA^2+-dependent protein kinase of the wheat embryo
[3] = tested on: CA^2+- and phopholipid-dependent protein kinase C (PKC) of the rat brain
Bacillus subtilis = details: 0.1 ml; extract 50 mg/ml, streptomycin 10 mg/ml
Staphylococcus aureus = details: 0.1 ml; extract 50 mg/ml, streptomycin 10 mg/ml
HBV = details: chronically infected patients

Compound	inhibition of cAMP-dependent protein kinase [1]	inhibition of CA^2+-dependent protein kinase [2]	inhibition of protein kinase C (PKC) [3]	inhibition zone (Bacillus subtilis) [mm]	inhibition zone (Staphylococcus aureus) [mm]	cases in which the virus is eliminated from the liver (HBV)	further cases with clearly reduced number of viruses in the blood (HBV) [%]
O=C1OC2C3OC(=O)C4=CC(=O)C5(O)Oc6c(O)c(O)cc(c6C4C5(O)O)C(=O)OC2C(OC(=O)c2cc(O)c(O)c(O)c2)OC3COC(=O)c2cc(O)c(O)c3c2C2C1=CC(=O)C(O)(O3)C2(O)O (stereo not shown) [amariin]	most effective	most effective	most effective	–	–	–	–
O=C1O[C@H]2[C@@H]3OC(=O)c4cc(O)c(O)c(O)c4-c4c(cc(O)c(O)c4O)C(=O)OC[C@H]2O[C@@H](OC(=O)c2cc(O)c(O)c(O)c2)[C@@H]3OC(=O)c2cc(O)c(O)c3c2[C@@H]2C1=CC(=O)[C@](O)(O3)C2(O)O [geraniin]	most effective	most effective	most effective	–	–	–	–
[H]/N=C(/N)N[C@H]1[C@H](O)[C@@H](O)[C@H](O[C@@H]2O[C@@H](C)[C@](O)(C=O)[C@H]2O[C@@H]2O[C@@H](CO)[C@H](O)[C@@H](O)[C@@H]2NC)[C@@H](N/C(N)=N\[H])[C@@H]1O [streptomycin]	–	–	–	35	35	–	–
interferon α	–	–	–	–	–	20-30%	30
phenazine-derivative of the geraniin	most effective	most effective	most effective	–	–	–	–
